Results taken from US20170152239A1, “BENZAMIDE AND HETEROBENZAMIDE COMPOUNDS” (PFIZER INC., priority 2012, published 2017).

Each compound was assayed against WT EZH2 (EZH2 4 protein complex: EZH2, EED, SUZ12, RbAp48) (Homo sapiens, UniProt O75530+Q09028+Q15022+Q15910) (assay: WT EZH2 nucleosome assay). Settings: nucleosome assay, 5 nM EZH2 4-protein complex, 1.5 μM SAM; read-out: WT EZH2 IC50.
Type: biochemical
Experimental: Nucleosome Assay Protocol:
A. Compound preparation • 1. Prepare 10 mM stock solutions in 100% DMSO from solid material • 2. Serial dilute 10 mM compound stocks either 2 or 3-fold in 100% DMSO to generate compounds for 11 point dose response
B. Reagent preparation • 1. Prepare 1× assay buffer containing 100 mM Tris pH 8.5, 4 mM DTT and 0.01% Tween-20 • 2. Dilute purified HeLA oligonucleosomes and recombinant histone H1 (New England Biolabs) in assay buffer to 1.67×. • 3. Dilute EZH2 4 protein complex (EZH2, EED, SUZ12, RbAp48) to 3.5× in assay buffer • 4. Prepare 10×^3H SAM solution in assay buffer using 0.94 μCi/well of radioactive SAM (Perkin Elmer) and sufficient non-labeled SAM (Sigma) for 1.5 μM final concentration. • 5. Dilute TCA to 20% in DI water
C. Enzyme reaction • 1. Final reaction conditions are 5 nM EZH2 4-protein complex, 1.5 μM SAM, 25 μg/mL oligonucleosomes, 50 nM rH1 in a 50 μl reaction volume. • 2. Add 1 μl of diluted compound to the assay plate (96-well V-bottom polypropylene plates) or 1 μl of DMSO for control wells. • 3. Add 30 μl of nucleosomes to the assay plate • 4. Add 14 μl of EZH2 4 protein complex to the assay plate • 5. Add 5 μl of ^3H SAM to start the reaction. • 6. Stop the reaction after 60 minutes with the addition of 100 μl of 20% TCA • 7. Transfer 150 μl of quenched reaction into a prepared filterplate (Millipore #MSIPN4B10) • 8. Apply vacuum to the filterplate to filter the reaction mix through the membrane. • 9. Wash the filterplate with 8×200 μl of PBS, blot dry and dry in an oven for 30 minutes • 10. Add 50 μl of microscint-20 scintillation fluid (Perkin Elmer) to each well, wait 30 minutes and count on a liquid scintillation counter.
D. Data analysis • 1. IC50 values were determined by fitting the data to a 4-parameter IC50 equation using proprietary curve fitting software.
Wild type (WT) EZH2% Effect at 20 μM and IC50 values (μM) generated in WT EZH2 or EZH2PRC2 mutant Y641N nucleosome assays are provided in Table 3 below. A blank entry in the table indicates the data was not generated in that assay.

Chain of WT EZH2 (EZH2 4 protein complex: EZH2, EED, SUZ12, RbAp48) (Q15910 whole entry): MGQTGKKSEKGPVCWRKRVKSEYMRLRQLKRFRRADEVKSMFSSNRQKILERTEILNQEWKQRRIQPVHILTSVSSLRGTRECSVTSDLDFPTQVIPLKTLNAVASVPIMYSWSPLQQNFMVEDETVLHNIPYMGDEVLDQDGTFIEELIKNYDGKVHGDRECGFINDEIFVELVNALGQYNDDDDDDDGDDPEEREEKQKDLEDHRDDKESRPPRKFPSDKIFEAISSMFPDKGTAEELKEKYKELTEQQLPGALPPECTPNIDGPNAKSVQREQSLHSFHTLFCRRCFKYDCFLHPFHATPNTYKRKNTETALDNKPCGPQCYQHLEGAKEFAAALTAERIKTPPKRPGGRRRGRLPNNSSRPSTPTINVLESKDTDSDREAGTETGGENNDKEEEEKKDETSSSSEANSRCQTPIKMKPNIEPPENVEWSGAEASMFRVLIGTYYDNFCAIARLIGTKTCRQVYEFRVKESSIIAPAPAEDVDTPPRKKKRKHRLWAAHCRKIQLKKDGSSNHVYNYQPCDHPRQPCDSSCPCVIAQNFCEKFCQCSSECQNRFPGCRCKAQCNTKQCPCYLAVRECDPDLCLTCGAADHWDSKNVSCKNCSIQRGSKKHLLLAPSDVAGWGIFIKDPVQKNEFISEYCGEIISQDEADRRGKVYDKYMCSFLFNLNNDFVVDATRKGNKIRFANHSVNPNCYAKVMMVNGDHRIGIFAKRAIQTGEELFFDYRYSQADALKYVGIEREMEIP
Chain of WT EZH2 (EZH2 4 protein complex: EZH2, EED, SUZ12, RbAp48) (O75530 whole entry partner): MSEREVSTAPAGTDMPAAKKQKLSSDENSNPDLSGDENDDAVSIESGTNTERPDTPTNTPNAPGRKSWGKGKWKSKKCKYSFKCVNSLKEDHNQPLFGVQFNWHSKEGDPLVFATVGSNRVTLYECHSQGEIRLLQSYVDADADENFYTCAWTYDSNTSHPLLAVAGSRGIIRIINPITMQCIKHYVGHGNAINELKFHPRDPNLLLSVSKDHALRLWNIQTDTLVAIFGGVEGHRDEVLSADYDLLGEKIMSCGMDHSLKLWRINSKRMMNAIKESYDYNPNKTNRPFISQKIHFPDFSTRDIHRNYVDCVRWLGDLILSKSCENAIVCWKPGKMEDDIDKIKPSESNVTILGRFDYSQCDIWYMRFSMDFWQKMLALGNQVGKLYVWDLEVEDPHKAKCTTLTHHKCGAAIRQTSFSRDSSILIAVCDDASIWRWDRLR
Chain of WT EZH2 (EZH2 4 protein complex: EZH2, EED, SUZ12, RbAp48) (Q15022 whole entry partner): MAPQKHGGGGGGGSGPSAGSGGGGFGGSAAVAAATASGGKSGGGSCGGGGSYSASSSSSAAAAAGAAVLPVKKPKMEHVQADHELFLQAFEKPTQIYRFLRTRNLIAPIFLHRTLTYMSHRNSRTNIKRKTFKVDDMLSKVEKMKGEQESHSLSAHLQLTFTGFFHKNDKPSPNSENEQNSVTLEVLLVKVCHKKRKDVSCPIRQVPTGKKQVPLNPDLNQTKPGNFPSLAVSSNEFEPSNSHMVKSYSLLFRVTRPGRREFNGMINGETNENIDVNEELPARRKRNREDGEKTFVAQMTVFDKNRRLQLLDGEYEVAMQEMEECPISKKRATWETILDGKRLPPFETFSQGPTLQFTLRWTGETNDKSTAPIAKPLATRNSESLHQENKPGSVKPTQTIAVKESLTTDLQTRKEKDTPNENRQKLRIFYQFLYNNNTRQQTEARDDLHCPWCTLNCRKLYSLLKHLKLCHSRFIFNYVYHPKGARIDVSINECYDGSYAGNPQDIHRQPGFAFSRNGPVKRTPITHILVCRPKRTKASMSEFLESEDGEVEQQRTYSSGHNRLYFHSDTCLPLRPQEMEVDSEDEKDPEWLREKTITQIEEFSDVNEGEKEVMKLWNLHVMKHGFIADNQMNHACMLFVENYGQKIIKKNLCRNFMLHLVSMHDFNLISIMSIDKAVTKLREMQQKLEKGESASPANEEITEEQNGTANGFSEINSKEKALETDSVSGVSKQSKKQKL
Chain of WT EZH2 (EZH2 4 protein complex: EZH2, EED, SUZ12, RbAp48) (Q09028 whole entry partner): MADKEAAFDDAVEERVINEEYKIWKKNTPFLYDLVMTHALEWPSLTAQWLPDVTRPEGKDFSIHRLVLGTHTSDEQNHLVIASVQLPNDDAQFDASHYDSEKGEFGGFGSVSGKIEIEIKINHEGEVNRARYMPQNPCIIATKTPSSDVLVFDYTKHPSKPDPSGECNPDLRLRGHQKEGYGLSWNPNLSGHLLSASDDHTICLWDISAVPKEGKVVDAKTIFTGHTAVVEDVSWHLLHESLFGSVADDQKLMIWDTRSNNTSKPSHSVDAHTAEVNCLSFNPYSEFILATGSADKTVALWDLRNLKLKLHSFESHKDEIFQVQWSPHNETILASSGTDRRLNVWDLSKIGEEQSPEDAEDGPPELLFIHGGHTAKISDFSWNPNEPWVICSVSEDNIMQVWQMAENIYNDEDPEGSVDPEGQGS

With Cc1cc(C)c(CNC(=O)c2cc(-c3cnc(N4CCOCC4)nc3)cc(-c3c(C)cnn3C)c2C)c(=O)[nH]1 [Example 21, N-[(4,6-dimethyl-2-oxo-1,2-dihydropyridin-3-yl)methyl]-3-(1,4-dimethyl-1H-pyrazol-5-yl)-2-methyl-5-(2-morpholin-4-ylpyrimidin-5-yl)benzamide] as the compound, how does the IC50 read?
Its IC50 is 0.019 µM.

With Cc1cc(C)c(CNC(=O)c2cc(-c3cnc(N4C5CCC4COC5)nc3)cc(-c3c(C)cnn3C)c2C)c(=O)[nH]1 [Example 23, N-[(4,6-dimethyl-2-oxo-1,2-dihydropyridin-3-yl)methyl]-3-(1,4-dimethyl-1H-pyrazol-5-yl)-2-methyl-5-{2-[3-oxa-8-azabicyclo[3.2.1]oct-8-yl]pyrimidin-5-yl}benzamide] as the compound, how does the IC50 read?
Its IC50 is 0.015 µM.

How did the IC50 turn out when COc1ncc(-c2cc(C(=O)NCc3c(C)cc(C)[nH]c3=O)c(C)c(-c3c(C)cnn3C)c2)cn1 [Example 25, N-[(4,6-dimethyl-2-oxo-1,2-dihydropyridin-3-yl)methyl]-3-(1,4-dimethyl-1H-pyrazol-5-yl)-5-(2-methoxypyrimidin-5-yl)-2-methylbenzamide] was run?
The IC50 was 0.16 µM.

How did the IC50 turn out when Cc1cc(C)c(CNC(=O)c2cc(Cl)cc(-n3c(C)cnc3C)c2C)c(=O)[nH]1 [Example 28, 5-chloro-3-(2,5-dimethyl-1H-imidazol-1-yl)-N-[(4,6-dimethyl-2-oxo-1,2-dihydropyridin-3-yl)methyl]-2-methylbenzamide] was run?
The IC50 was 0.26 µM.

With Cc1cc(C)c(CNC(=O)c2cc(Cl)cc(-n3ccnc3C)c2C)c(=O)[nH]1 [Example 29, 5-chloro-N-[(4,6-dimethyl-2-oxo-1,2-dihydropyridin-3-yl)methyl]-2-methyl-3-(2-methyl-1H-imidazol-1-yl)benzamide] as the compound, how does the IC50 read?
The IC50 was 0.71 µM.

Which IC50 does the source give for Cc1cc(C)c(CNC(=O)c2cc(C#N)cc(-c3c(C)cnn3C)c2C)c(=O)[nH]1 [Example 30, 5-cyano-N-[(4,6-dimethyl-2-oxo-1,2-dihydropyridin-3-yl)methyl]-3-(1,4-dimethyl-1H-pyrazol-5-yl)-2-methylbenzamide] here?
Its IC50 is 0.54 µM.

Which IC50 does the source give for Cc1cc(C)c(CNC(=O)c2nc(-c3ccc(N)nc3)nc(-c3ccnn3C)c2C)c(=O)[nH]1 [Example 34, 2-(6-aminopyridin-3-yl)-N-[(4,6-dimethyl-2-oxo-1,2-dihydropyridin-3-yl)methyl]-5-methyl-6-(1-methyl-1H-pyrazol-5-yl)pyrimidine-4-carboxamide] here?
Its IC50 is 0.94 µM.

For Cc1cc(C)c(CNC(=O)c2cc(F)cc(-c3c(C)cnn3C)c2C)c(=O)[nH]1 [Example 38, N-[(4,6-dimethyl-2-oxo-1,2-dihydropyridin-3-yl)methyl]-3-(1,4-dimethyl-1H-pyrazol-5-yl)-5-fluoro-2-methylbenz-amide], which IC50 is on record?
The IC50 was 0.71 µM.

CCc1cnn(C)c1-c1cccc(C(=O)NCc2c(C)cc(C)[nH]c2=O)c1C [Example 39, N-[(4,6-dimethyl-2-oxo-1,2-dihydropyridin-3-yl)methyl]-3-(4-ethyl-1-methyl-1H-pyrazol-5-yl)-2-methylbenz-amide] was tested. Which IC50 did it give?
The IC50 was 0.87 µM.

For Cc1cc(C)c(CNC(=O)c2nc(Cl)nc(N3C4CCC3CC4)c2C)c(=O)[nH]1 [Example 40, 6-(7-azabicyclo[2.2.1]hept-7-yl)-2-chloro-N-[(4,6-dimethyl-2-oxo-1,2-dihydropyridin-3-yl)methyl]-5-methylpyrimi-dine-4-carboxamide], which IC50 is on record?
Its IC50 is 1.03 µM.

With Cc1cc(C)c(CNC(=O)c2cc(C3=CCOCC3)cc(C3=CCOCC3)c2C)c(=O)[nH]1 [Example 42, 3,5-di-3,6-dihydro-2H-pyran-4-yl-N-[(4,6-dimethyl-2-oxo-1,2-dihydropyridin-3-yl)methyl]-2-methylbenz-amide] as the compound, how does the IC50 read?
Its IC50 is 1.12 µM.

Which IC50 does the source give for Cc1cc(C)c(CNC(=O)c2nc(N3CCC(N)CC3)nc(-c3ccnn3C)c2C)c(=O)[nH]1 [Example 43, 2-(4-aminopiperidin-1-yl)-N-[(4,6-dimethyl-2-oxo-1,2-dihydropyridin-3-yl)methyl]-5-methyl-6-(1-methyl-1H-pyrazol-5-yl)pyrimidine-4-carboxamide] here?
Its IC50 is 1.34 µM.

Cc1cc(C)c(CNC(=O)c2nc(-c3cncnc3)nc(N3CCC[C@@H]3C)c2C)c(=O)[nH]1 [Example 44, N-[(4,6-dimethyl-2-oxo-1,2-dihydropyridin-3-yl)methyl]-5-methyl-6-[(2S)-2-methylpyrrolidin-1-yl]-2,5′-bipyrimidine-4-carboxamide] was tested. Which IC50 did it give?
The IC50 was 1.41 µM.

With Cc1cc(C)c(CNC(=O)c2nc(-c3ccc(N)nc3)nc(N3CCC[C@@H]3C)c2C)c(=O)[nH]1 [Example 45, 2-(6-aminopyridin-3-yl)-N-[(4,6-dimethyl-2-oxo-1,2-dihydropyridin-3-yl)methyl]-5-methyl-6-[(2S)-2-methylpyrrolidin-1-yl]pyrimidine-4-carboxamide] as the compound, how does the IC50 read?
The IC50 was 1.53 µM.

With CNc1ncc(-c2nc(C(=O)NCc3c(C)cc(C)[nH]c3=O)c(C)c(-c3ccnn3C)n2)cn1 [Example 47, N-[(4,6-dimethyl-2-oxo-1,2-dihydropyridin-3-yl)methyl]-5-methyl-2′-(methylamino)-6-(1-methyl-1H-pyrazol-5-yl)-2,5′-bipyrimidine-4-carboxamide] as the compound, how does the IC50 read?
Its IC50 is 1.7 µM.

How did the IC50 turn out when Cc1cc(C)c(CNC(=O)c2cc(Cl)cc(-n3ncnc3C)c2C)c(=O)[nH]1 [Example 49, 5-chloro-N-[(4,6-dimethyl-2-oxo-1,2-dihydropyridin-3-yl)methyl]-2-methyl-3-(5-methyl-1H-1,2,4-triazol-1-yl)benzamide] was run?
Its IC50 is 1.95 µM.

Cc1cc(C)c(CNC(=O)c2nc(-c3cnc(N(C)C)nc3)nc(-c3ccnn3C)c2C)c(=O)[nH]1 [Example 51, 2′-(dimethylamino)-N-[(4,6-dimethyl-2-oxo-1,2-dihydropyridin-3-yl)methyl]-5-methyl-6-(1-methyl-1H-pyrazol-5-yl)-2 ,5′-bipyrimidine-4-carboxamide] was tested. Which IC50 did it give?
Its IC50 is 2.11 µM.

For Cc1cc(C)c(CNC(=O)c2cc(Cl)cc(-n3nnnc3C)c2C)c(=O)[nH]1 [Example 52, 5-chloro-N-[(4,6-dimethyl-2-oxo-1,2-dihydropyridin-3-yl)methyl]-2-methyl-3-(5-methyl-1H-tetrazol-1-yl)benzamide], which IC50 is on record?
The IC50 was 2.46 µM.

How did the IC50 turn out when Cc1cc(C)c(CNC(=O)c2ncnc(N3CCCC3C(F)(F)F)c2C)c(=O)[nH]1 (stereo not shown) [Example 53, N-[(4,6-dimethyl-2-oxo-1,2-dihydropyridin-3-yl)methyl]-5-methyl-6-[2-(trifluoromethyl)pyrrolidin-1-yl]pyrimidine-4-carboxamide] was run?
The IC50 was 2.52 µM.

Which IC50 does the source give for Cc1cc(C)c(CNC(=O)c2nc(C3CC3)nc(N3CCC[C@@H]3C)c2C)c(=O)[nH]1 [Example 54, 2-cyclopropyl-N-[(4,6-dimethyl-2-oxo-1,2-dihydropyridin-3-yl)methyl]-5-methyl-6-[(2S)-2-methylpyrrolidin-1-yl]pyrimidine-4-carboxamide] here?
The IC50 was 2.83 µM.

How did the IC50 turn out when Cc1cc(C)c(CNC(=O)c2nc(N3[C@@H]4CC[C@H]3COC4)nc(N3CCC[C@@H]3C)c2C)c(=O)[nH]1 [Example 55, N-[(4,6-dimethyl-2-oxo-1,2-dihydropyridin-3-yl)methyl]-5-methyl-6-[(2S)-2 - methylpyrrolidin-1-yl]-2-[(1R,5S)-3-oxa-8-azabicyclo[3.2.1]oct-8-yl]pyrimidine-4-carboxamide] was run?
The IC50 was 2.89 µM.

Which IC50 does the source give for Cc1cc(C)c(CNC(=O)c2nc(N3C[C@@H]4[C@@H](N)[C@@H]4C3)nc(-c3ccnn3C)c2C)c(=O)[nH]1 [Example 56, 2-[(1R,5S,6S)-6-amino-3-azabicyclo[3.1.0]hex-3-yl]-N-[(4,6-dimethyl-2-oxo-1,2-dihydropyridin-3-yl)methyl]-5-methyl-6-(1-methyl-1H-pyrazol-5-yl)pyrimidine-4-carboxamide] here?
The IC50 was 3.18 µM.

Which IC50 does the source give for Cc1cc(C)c(CNC(=O)c2nc(OC(C)C)nc(N3CCC[C@@H]3C)c2C)c(=O)[nH]1 [Example 57, N-[(4,6-dimethyl-2-oxo-1,2-dihydropyridin-3-yl)methyl]-2-isopropoxy-5-methyl-6-[(2S)-2 - methylpyrrolidin-1-yl]pyrimidine-4-carboxamide] here?
Its IC50 is 3.2 µM.

For Cc1cc(C)c(CNC(=O)c2nc(N3C[C@@H]4C[C@H]3CO4)nc(N3CCC[C@@H]3C)c2C)c(=O)[nH]1 [Example 58, N-[(4,6-dimethyl-2-oxo-1,2-dihydropyridin-3-yl)methyl]-5-methyl-6-[(2S)-2 - methylpyrrolidin-1-yl]-2-[(1S,4S)-2-oxa-5-azabicyclo[2.2.1]hept-5-yl]pyrimidine-4-carboxamide], which IC50 is on record?
The IC50 was 3.52 µM.

How did the IC50 turn out when Cc1cc(C)c(CNC(=O)c2ncnc(N3CCCC3(C)C)c2C)c(=O)[nH]1 [Example 59, N-[(4,6-dimethyl-2-oxo-1,2-dihydropyridin-3-yl)methyl]-6-(2,2-dimethylpyrroli-din-1-yl)-5-methylpyrimidine-4-carboxamide] was run?
The IC50 was 3.91 µM.
